Reference: the NIST ThermoML archive (doi:10.1016/j.jct.2009.10.003)
± gives the expanded uncertainty stated by the source.

Experiments:
[1] = Molar enthalpy of transition or fusion; conditions: Crystal; DSC
[2] = molar heat capacity at constant pressure; conditions: 298.15 K; 101.33 kPa; Liquid; Small sample (50 mg) DSC
[3] = Crystal; DTA

Molar enthalpy of transition or fusion [1] [kcal/mol] | molar heat capacity at constant pressure [2] [J/K/mol] | Normal melting temperature [3] [°C] | SMILES
6.77 ± 0.155 | 179.54 ± 8.5 | 189.92 ± 0.39 | NS(=O)(=O)c1ccccc1[N+](=O)[O-] [2-nitrobenzenesulfonamide]
7.12 ± 0.155 | 219.98 ± 13 | 180.46 ± 0.39 | NS(=O)(=O)c1ccc([N+](=O)[O-])cc1 [4-nitrobenzenesulfonamide]
7.52 ± 0.177 | 199.96 ± 8.5 | 164.00 ± 0.39 | NS(=O)(=O)c1cccc([N+](=O)[O-])c1 [3-nitrobenzenesulfonamide]
